# In article PMC5989765, “The safety, tolerability, and pharmacokinetic profile of GSK2838232, a novel 2nd generation HIV maturation inhibitor, as assessed in healthy subjects” (Pharmacology Research & Perspectives, 2018):
# “Also recorded” adds a separate entry of the source. Like-named read-outs stand apart in the source and are kept apart here.
# How the values were obtained:
# [1] = Study 204953 Part 1B: relative bioavailability capsule versus API PiB and food effect, with RTV; format: in vivo
# Procedure: (§1) This study was planned as an extension of the previously conducted single‐ and multiple‐dose escalation studies described above. It was a double‐blind, placebo‐controlled, single and repeat dose escalation study of micronized API GSK2838232 with RTV conducted in three parts (Part 1A, Part 1B, and Part 2).
# In Part 1A, a cohort of subjects was given single doses of 50, 100, and 250 mg of GSK2838232 with RTV, following 2 days of RTV predosing, in a sequential dose‐escalation design. Part 1B studied the relative bioavailability of GSK2838232 given as 100 mg (2 × 50 mg) capsules versus the reference API (PiB) in a two‐period crossover design with RTV, following 2 days of RTV predosing. In Period 3, subjects took the capsule formulation and RTV with a moderate fat meal (30% of calories from fat).
# (§2) Blood samples were taken via an indwelling cannula or by direct venipuncture, collected into a di‐potassium ethylenediaminetetraacetic acid (K2 EDTA) tube, and placed on wet ice. Samples were centrifuged at approximately 1500g for 10 minutes at approximately 4°C. Exactly 500 μL of the resulting plasma was transferred into labeled 1.4 mL Matrix TrakMate Tubes containing exactly 500 μL of 50 mmol/L citrate buffer, pH 4.0, and mixed well. When 500 μL of plasma was not able to be transferred, the ratio of plasma to citrate buffer was kept at 1:1. Buffered plasma samples were kept on ice and frozen at −70°C within 1 hour of collection. Plasma samples were analyzed for GSK2838232 using a validated analytical method based on protein precipitation, followed by high performance liquid chromatography with tandem mass spectrometry (HPLC/MS/MS) analysis.
# (§3) Extracts were analyzed using HPLC (Shimadzu, Nexera, 30 series) and tandem mass spectrometry detection (HPLC‐MS/MS). The mass spectrometer used was an API‐5500 using IonSpray interface (500 V) in positive mode monitoring. The mass transitions were 809.5 to 255.1 and 816.5 to 262.1 for GSK2838232 and [2H7] GSK2838232 (the isotopically labeled internal standard), respectively. The chromatographic conditions utilized a Waters Acquity UPLC BEH C18 column (50 × 2.1 mm, 1.7 μm) with mobile phases consisting of 1 mmol/L ammonium formate:formic acid (100:0.005) (mobile phase A) and acetonitrile:formic acid (100:0.1) (mobile phase B) at a flow rate of 0.6 mL/min, with pump B at 63% held for 2 minutes. The assay was validated to have precision (%RSD) of 0.7%‐6.5% (within‐run) and 1.0%‐5.9% RSD (between‐run) and with accuracy (%bias) of 0.0%‐1.6%. […] The lower limit of quantification (LLQ) was 0.5 ng/mL, using a 50 μL aliquot of K2EDTA acidified plasma. The higher limit of quantification (HLQ) was 500 ng/mL.
# (§4) The PK parameters were calculated by standard noncompartmental analysis based on actual sampling times using WinNonlin Version 6.3 or higher. Estimation of AUC used the linear up/log down trapezoidal rule.
# For the assessment of relative bioavailability of the capsule formulation compared to the PiB suspension and of the food effect using the capsule formulation (all with RTV), PK parameters were separately analyzed for each treatment using a mixed effects model with fixed effect terms for period and treatment following loge transformation. Subject was treated as a random effect in the model. Point estimates and their associated 90% CIs were constructed for the differences in PK parameter values between the test and reference treatments. The point estimates and their associated 90% CIs were then back‐transformed to provide point estimates and 90% CIs for the ratios of PK parameters from test and reference treatments on the original scale.
# [2] = in vitro, across all species; cited from earlier work
# [3] = Study 204953 Part 2: repeat dosing for 11 days with RTV QD or 200 mg BID unboosted; format: in vivo, human; details: for CL/F / Cmax / AUC / half-life: geometric mean (95% CI); for Cmax / Tmax / AUC / concentration at 24 h / half-life / concentration at 12 h: human, plasma, oral; for AUC: read-out: AUC(0‐τ); for half-life: read-out: t½ (converted); for dose proportionality (C max and AUC): repeat QD dosing 20‐200 mg with RTV for 11 days, PiB or capsules
# Procedure: as §1
# In Part 2, GSK2838232 was given to separate cohorts as once‐daily 20, 50, 100, and 200 mg doses with RTV for 11 days, with GSK2838232 and RTV dosing starting at the same time (i.e., no RTV predosing). GSK2838232 was administered as PiB for the 20 and 50 mg cohorts and as the capsule formulation for the 100 and 200 mg cohorts. Another separate cohort of subjects received GSK2838232 alone (i.e., unboosted) at a dose of 200 mg twice‐daily (BID; given every 12 hours) for 11 days using the capsule formulation to assess trough concentrations without RTV co‐administration.
# as §2, §3, §4
# [4] = 100 mg Fed (moderate, 30% fat meal) versus 100 mg fasted, API capsule formulation with RTV, Study 204953
# [5] = Capsule : API PiB, single 100 mg + ritonavir, Study 204953
# [6] = Study Day 11, 20 mg QD + RTV (PiB), Study 204953
# [7] = Study Day 11, 50 mg QD + RTV (PiB), Study 204953
# [8] = Study Day 11, 100 mg QD + RTV (capsules), Study 204953
# [9] = Study Day 11, 200 mg QD + RTV (capsules), Study 204953
# [10] = 200 mg, Study Day 11, 200 mg bid without RTV (capsules), Study 204953
# [11] = relative to first dose following predosing ritonavir to steady‐state
compound,measurement,setting,value
CC(C)C1=C2[C@H]3CC[C@@H]4[C@@]5(C)CC[C@H](OC(=O)CC(C)(C)C(=O)O)C(C)(C)[C@@H]5CC[C@@]4(C)[C@]3(C)CC[C@@]2([C@@H](O)CN(CCN(C)C)Cc2ccc(Cl)cc2)CC1=O [GSK2838232],"Geometric least square mean ratio [90% CI], AUC(0‐∞)",[1]; [4],"1.58 (1.412,1.777)"
same,"Geometric least square mean ratio [90% CI], C max",[1]; [4],"1.62 (1.376,1.911)"
same,"Ratio of Geometric Least Square Means, AUC(0‐∞)",[1]; [5],1.43
same,"Ratio of Geometric Least Square Means, C max",[1]; [5],1.58
same,bioavailability after meal relative to the fasted state,"[1]; capsule formulation with RTV, moderate fat (30%) meal, Study 204953",approximately 1.6 fold
same,"C24, capsule relative to PiB suspension",[1]; single 100 mg with RTV,1.4 fold
same,"C max, capsule relative to PiB suspension",[1]; single 100 mg with RTV,1.6 fold
same,"t½ geometric LS mean ratio, capsule versus PiB","[1]; single 100 mg with RTV, data not shown",no difference
same,plasma protein binding,[2],> 99.9%
same,steady‐state C24 as multiple of PA‐IC90,"[3]; 200 mg BID unboosted, PA‐IC90 5 ng/mL",~ 8 fold
same,steady‐state C24 of 200 mg BID without RTV compared with 50 mg QD with RTV,[3]; Study 204953,similar
same,CL/F,[3]; [6],"44.5 (29.5, 67.3) L/h"
same,CL/F,[3]; [7],"46.0 (35.7, 59.2) L/h"
same,CL/F,[3]; [8],"41.5 (30.7, 56.1) L/h"
same,CL/F,[3]; [9],"49.8 (30.3, 81.9) L/h"
same,CL/F,"[3]; Study Day 11, 200 mg bid without RTV (capsules), Study 204953","269 (182, 399) L/h"
same,Cmax,"[3]; 20 mg, Study day 1, 20 mg QD + RTV (PiB), Study 204953",11.1 ng/mL
same,Tmax,"[3]; 20 mg, Study day 1, 20 mg QD + RTV (PiB), Study 204953, median (range)",3.74 h
same,AUC,"[3]; 20 mg, Study day 1, 20 mg QD + RTV (PiB), τ = 24 hours, Study 204953",175 ng·h/mL
same,concentration at 24 h,"[3]; 20 mg, Study day 1, 20 mg QD + RTV (PiB), τ = 24 hours, Study 204953, median (range), read-out: Cτ",6.09 ng/mL
same,Cmax,"[3]; 50 mg, Study day 1, 50 mg QD + RTV (PiB), Study 204953",17.1 ng/mL
same,Tmax,"[3]; 50 mg, Study day 1, 50 mg QD + RTV (PiB), Study 204953, median (range)",2.5 h
same,AUC,"[3]; 50 mg, Study day 1, 50 mg QD + RTV (PiB), τ = 24 hours, Study 204953",265 ng·h/mL
same,concentration at 24 h,"[3]; 50 mg, Study day 1, 50 mg QD + RTV (PiB), τ = 24 hours, Study 204953, median (range), read-out: Cτ",11.1 ng/mL
same,Cmax,"[3]; 100 mg, Study day 1, 100 mg QD + RTV (capsules), Study 204953",46.2 ng/mL
same,Tmax,"[3]; 100 mg, Study day 1, 100 mg QD + RTV (capsules), Study 204953, median (range)",2.25 h
same,AUC,"[3]; 100 mg, Study day 1, 100 mg QD + RTV (capsules), τ = 24 hours, Study 204953",635 ng·h/mL
same,concentration at 24 h,"[3]; 100 mg, Study day 1, 100 mg QD + RTV (capsules), τ = 24 hours, Study 204953, median (range), read-out: Cτ",22.7 ng/mL
same,concentration at 24 h,"[3]; 200 mg, 200 mg BID unboosted, read-out: steady‐state C24 mean concentration",39 ng/mL
same,Cmax,[3]; [10],96.1 ng/mL
same,half-life,[3]; [10],19.4 h
same,Tmax,"[3]; 200 mg, Study Day 11, 200 mg bid without RTV (capsules), Study 204953, median (range)",3.76 h
same,AUC,"[3]; 200 mg, Study Day 11, 200 mg bid without RTV (capsules), τ = 12 hours, Study 204953",742 ng·h/mL
same,concentration at 12 h,"[3]; 200 mg, Study Day 11, 200 mg bid without RTV (capsules), τ = 12 hours, Study 204953, median (range), read-out: Cτ",38.4 ng/mL
same,Cmax,"[3]; 200 mg, Study day 1, 200 mg QD + RTV (capsules), Study 204953",75 ng/mL
same,Tmax,"[3]; 200 mg, Study day 1, 200 mg QD + RTV (capsules), Study 204953, median (range)",2.25 h
same,AUC,"[3]; 200 mg, Study day 1, 200 mg QD + RTV (capsules), τ = 24 hours, Study 204953",1060 ng·h/mL
same,concentration at 24 h,"[3]; 200 mg, Study day 1, 200 mg QD + RTV (capsules), τ = 24 hours, Study 204953, median (range), read-out: Cτ",40.1 ng/mL
same,Cmax,"[3]; 200 mg, Study day 1, 200 mg bid without RTV (capsules), Study 204953",48.5 ng/mL
same,Tmax,"[3]; 200 mg, Study day 1, 200 mg bid without RTV (capsules), Study 204953, median (range)",3.74 h
same,AUC,"[3]; 200 mg, Study day 1, 200 mg bid without RTV (capsules), τ = 12 hours, Study 204953",267 ng·h/mL
same,concentration at 12 h,"[3]; 200 mg, Study day 1, 200 mg bid without RTV (capsules), τ = 12 hours, Study 204953, median (range), read-out: Cτ",20 ng/mL
same,Cmax,[3]; [6],25.3 ng/mL
same,half-life,[3]; [6],19.8 h
same,Tmax,"[3]; Study Day 11, 20 mg QD + RTV (PiB), Study 204953, median (range)",5.98 h
same,AUC,"[3]; Study Day 11, 20 mg QD + RTV (PiB), τ = 24 hours, Study 204953",449 ng·h/mL
same,concentration at 24 h,"[3]; Study Day 11, 20 mg QD + RTV (PiB), τ = 24 hours, Study 204953, median (range), read-out: Cτ",17 ng/mL
same,Cmax,[3]; [7],56.6 ng/mL
same,half-life,[3]; [7],20.5 h
same,Tmax,"[3]; Study Day 11, 50 mg QD + RTV (PiB), Study 204953, median (range)",3.75 h
same,AUC,"[3]; Study Day 11, 50 mg QD + RTV (PiB), τ = 24 hours, Study 204953",1090 ng·h/mL
same,concentration at 24 h,"[3]; Study Day 11, 50 mg QD + RTV (PiB), τ = 24 hours, Study 204953, median (range), read-out: Cτ",40.8 ng/mL
same,Cmax,[3]; [8],130 ng/mL
same,half-life,[3]; [8],17.7 h
same,Tmax,"[3]; Study Day 11, 100 mg QD + RTV (capsules), Study 204953, median (range)",3.25 h
same,AUC,"[3]; Study Day 11, 100 mg QD + RTV (capsules), τ = 24 hours, Study 204953",2410 ng·h/mL
same,concentration at 24 h,"[3]; Study Day 11, 100 mg QD + RTV (capsules), τ = 24 hours, Study 204953, median (range), read-out: Cτ",89.3 ng/mL
same,Cmax,[3]; [9],225 ng/mL
same,half-life,[3]; [9],18 h
same,Tmax,"[3]; Study Day 11, 200 mg QD + RTV (capsules), Study 204953, median (range)",3.25 h
same,AUC,"[3]; Study Day 11, 200 mg QD + RTV (capsules), τ = 24 hours, Study 204953",4010 ng·h/mL
same,concentration at 24 h,"[3]; Study Day 11, 200 mg QD + RTV (capsules), τ = 24 hours, Study 204953, median (range), read-out: Cτ",142 ng/mL
same,reduction of Day 1 AUC without ritonavir predosing,[3]; [11],~25%
same,reduction of Day 1 C max without ritonavir predosing,[3]; [11],~25%
same,dose proportionality (C max and AUC),[3],proportional PK; also recorded: dose proportional
same,dose proportionality (C max and AUC),[3]; listed as GSK2383232,proportional pharmacokinetics
